Data set [1] can be described thus: DPPH free radical scavenging (antioxidant) assay. As to conditions: in-vitro. On the procedure:
The synthesized pyrazolone derivatives’ capacity to scavenge free radicals DPPH was assessed using a modified Zheleva-Dimitrova technique. Also, the DPPH radical was investigated to L-ascorbic acid with concentrations (10–100 μM) that serving as the standard positive control and the scavenging percent was calculated by Eq. 1.1 [drawing 1]

Data set [2] concerns HCT-116, HepG2, and MCF-7. In words: MTT assay, whole panel of cancer cell lines (result in words). Format: cell-based, human. The following applies: 48 h, compared with Sorafenib. The source says:
(§1) Mammary gland (MCF-7;# ATCC HTB-22), colorectal adenocarcinoma (HCT-116; # ATCC CCL-247)), hepatocellular carcinoma (HepG-2; #ATCC HB-8065), and human lung fibroblast (WI-38; # ATCC CCL-75). The ATCC cell line was obtained via the Holding Company for Biological Products and Vaccines (VACSERA), Cairo, Egypt.
(§2) The MTT test was utilized to ascertain the pyrazolone derivatives’ inhibitory effects on cell growth using the aforementioned cell lines. This colorimetric assay is based on the transformation of yellow tetrazolium bromide (MTT) by mitochondrial succinate dehydrogenase in living cells into a purple formazan derivative. The RPMI-1640 medium was supplemented with 10% fetal bovine serum to cultivate cell lines. At 37° C in an incubator with 5% CO2, 100 units/mL of penicillin and 100 µg/mL of streptomycin were introduced as antibiotics. The cell lines were seeded by 1.0 × 10^4 cells/well in a 96-well plate and kept at 37 °C for 24 h with 5% CO2. Following incubation, the cells were subjected to several concentrations of newly synthesized pyrazolone derivatives and left for 48 h incubation.20 µL of a 5 mg/mL MTT solution was added and incubated for 4 h after the drug treatment. To dissolve the purple formazan produced in each well, 100 µL of dimethyl sulfoxide (DMSO) was applied. The colorimetric test is performed at 630 nm absorbance and recorded using a plate reader (EXL 800, USA)[32].
(§3) GraphPad Prism 6 (San Diego, CA) (GraphPad Prism 6, https://www.graphpad.com/scientific-software/prism/) was used to calculate the IC50 values and the data was expressed as mean ± SE.

The subject of another data set is HCT-116. In words: MTT assay, HCT-116 colorectal adenocarcinoma cells. The following applies: Homo sapiens, 48 h, mean ± SE, read-out: IC50 against HCT-116. It counts as cell-based.
The subject of another data set is HepG-2. In words: MTT assay, HepG-2 hepatocellular carcinoma cells. It counts as cell-based. The following applies: Homo sapiens, HepG2, 48 h, mean ± SE, read-out: IC50 against HepG-2.
For the next data set, the system named is MCF-7. Kind of data set: MTT assay, MCF-7 mammary gland cells. As to conditions: Homo sapiens, MCF7, 48 h, mean ± SE, read-out: IC50 against MCF-7. It counts as cell-based.
Another data set concerns WI-38. Kind of data set: MTT assay, WI-38 normal human lung fibroblast cells. It counts as cell-based. As to conditions: 48 h, compared with SOR.
Excerpt: as §1
as §2, with “Following incubation, the cells were subjected to several concentrations of newly synthesized pyrazolone derivatives and left for 48 h incubation.20 µL of a 5 mg/mL MTT solution was added and incubated for 4 h after the drug treatment. To dissolve the purple formazan produced in each well, 100 µL of dimethyl sulfoxide (DMSO) was applied.” left out
as §3

Data set [3] is described as follows: MTT assay, WI-38 normal human lung fibroblast cells. It counts as cell-based. As to conditions: human, WI-38 normal lung fibroblast cells.
Excerpt: as §1
as §2, with “Following incubation, the cells were subjected to several concentrations of newly synthesized pyrazolone derivatives and left for 48 h incubation.20 µL of a 5 mg/mL MTT solution was added and incubated for 4 h after the drug treatment. To dissolve the purple formazan produced in each well, 100 µL of dimethyl sulfoxide (DMSO) was applied.” left out
as §3

Here are results for nine molecules from article PMC11582634, “Discovering the inhibition of YAP/TEAD Hippo signaling pathway via new pyrazolone derivatives: synthesis, molecular docking and biological investigations” (Scientific Reports, 2024).

In turn, “3-amino-4-((4-(6-(4-(dimethylamino)phenyl)-2-oxo-1,2-dihydropyridine-4-yl)phenyl)diazenyl)-1-phenyl-1H-pyrazole-5(4H)-one [Compound 7]” gave an IC50 in data set [1] of 93.7 ± 0.47 µM. In addition, in data set [2], the “Impact on all panels of cancer cell lines (in words)” value (shortened to “Impact on all panels”) was “moderate to weak impact”.

The molecule `CN(C)c1ccc(C2CC(c3ccc(N=NC4C(=O)N(c5ccccc5)N=C4N)cc3)=NN2c2ccccc2)cc1` (stereo not drawn) [Compound 4, 3-amino-4-((4-(5-(4-(dimethylamino)phenyl)-1-phenyl-4,5-dihydro-1H-pyrazole-3-yl)phenyl)diazenyl)-1-phenyl-1H-pyrazole-5(4H)-one] yielded a melting point of 96 °C. Further, the IC50 in data set [1] is 19.88 ± 0.15 µM. Moreover, in the data set with HCT-116, the IC50 was 7.67 ± 0.5 µM. For the same molecule, in the data set with HepG-2, the IC50 came out at 5.85 ± 0.4 µM. Besides, the IC50 in the data set with MCF-7 is 6.97 ± 0.5 µM. In addition, in the data set on WI-38, the “Cytotoxic effect on WI-38 normal cells (in words)” value is recorded as “no cytotoxic effects”.

Molecule `CC(=O)N1N=C(c2ccc(N=NC3C(=O)N(c4ccccc4)N=C3N)cc2)CC1c1ccc(N(C)C)cc1` (stereo not drawn) [Compound 6, 4-((4-(1-acetyl-5-(4-(dimethylamino)phenyl)-4,5-dihydro-1H-pyrazole-3-yl)phenyl)diazenyl)-3-amino-1-phenyl-1H-pyrazole-5(4H)-one] displayed a melting point of 74 °C. In data set [1], this molecule came in with a half-maximal inhibitory concentration (IC50) of 32.4 ± 0.2 µM. Also, the IC50 with HCT-116 amounted to 16.5 ± 1.3 µM. In addition, the IC50 with HepG-2 worked out at 25.6 ± 1.7 µM. In addition, in the data set on MCF-7, the IC50 came out at 19.8 ± 1.5 µM.

`CN(C)c1ccc(-c2cc(-c3ccc(N=NC4C(=O)N(c5ccccc5)N=C4N)cc3)nc(=S)[nH]2)cc1` (stereo not drawn) [Compound 8, 3-amino-4-((4-(6-(4-(dimethylamino)phenyl)-2-thioxo-1,2-dihydropyrimidin-4-yl)phenyl)diazenyl)-1-phenyl-1H-pyrazol-5(4H)-one] showed a melting point of 103 °C. For the same molecule, the IC50 in data set [1] stood at 65.54 ± 0.32 µM. The “Impact on all panels” value in data set [2] was “moderate to weak impact”.

Molecule `CN(C)c1ccc(C2C=C(c3ccc(/N=N/C4C(=O)N(c5ccccc5)N=C4N)cc3)OC(N)=C2C#N)cc1` (stereo not drawn) [Compound 9, (E)-2-amino-6-(4-((3-amino-5-oxo-1-phenyl-4,5-dihydro-1H-pyrazole-4-yl)diazenyl)phenyl)-4-(4-(dimethylamino)phenyl)-4H-pyran-3-carbonitrile] displayed a melting point of 139 °C. In data set [1], this molecule displayed an IC50 of 47.07 ± 0.24 µM. Moreover, the “Impact on all panels” value in data set [2] is listed as “moderate to weak impact”.

`CN(C)c1ccc(-c2cc(-c3ccc(/N=N/C4C(=O)N(c5ccccc5)N=C4N)cc3)nc(N)c2C#N)cc1` (stereo not drawn) [Compound 10, (E)-2-amino-6-(4-((3-amino-5-oxo-1-phenyl-4,5-dihydro-1H-pyrazole-4-yl)diazenyl)phenyl)-4-(4-(dimethylamino)phenyl)nicotinonitrile] showed a melting point of 116 °C. Also, in data set [1], the concentration for half-maximal inhibition (IC50) was found to be 74.3 ± 0.38 µM. The “Impact on all panels” value in data set [2] is reported as “moderate to weak impact”.

The molecule `CN(C)c1ccc(-c2cc(-c3ccc(/N=N/C4C(=O)N(c5ccccc5)N=C4N)cc3)[nH]c(=O)c2C#N)cc1` (stereo not drawn) [Compound 11, (E)-6-(4-((3-amino-5-oxo-1-phenyl-4,5-dihydro-1H-pyrazol-4-yl)diazenyl)phenyl)-4-(4-(dimethylamino)phenyl)-2-oxo-1,2-dihydropyridine-3-carbonitrile] displayed a melting point of 92 °C. The molecule also registered an IC50 in data set [1] of 53.67 ± 0.29 µM. In addition, the “Impact on all panels” value in data set [2] was “moderate to weak impact”.

Take `O=C1O[C@H]([C@@H](O)CO)C(O)=C1O` [L-ascorbic acid, reference compound]: the IC50 in data set [1] came to 16.81 ± 0.1 µM.

On to `CNC(=O)c1cc(Oc2ccc(NC(=O)Nc3ccc(Cl)c(C(F)(F)F)c3)cc2)ccn1` [Sorafenib, reference compound], for which inhibition in data set [3] was half-maximal at 20.3 ± 0.45 µM (IC50 at 48 h).
